Laboratory results reported in patent publication US9855203B2, “Preserving personal care compositions” (The Procter & Gamble Company, priority 2013, dated 2018).

Assay: Log water solubility of preservatives
Conditions: logarithm base 10 of molar solubility at 25° C.; from experimental solubility or Chemsilico CS log WSo-3.0

C/C=C/C=C/C(=O)O [sorbic acid]
Log (water Solubility in mol/L): −0.33 mol/L

O=C(O)c1ccccc1O [Salicylic acid]
Log (water Solubility in mol/L): −1.41 mol/L

CCCCCCC(O)CO (stereo not shown) [caprylyl glycol]
Log (water Solubility in mol/L): −3.08 mol/L

CCOC(=O)c1ccc(O)cc1 [ethyl paraben]
Log (water Solubility in mol/L): −1.91 mol/L

OCc1ccccc1 [benzyl Alcohol]
Log (water Solubility in mol/L): −0.47 mol/L

C=CCCCCCCCCC(=O)O [Undecylenic Acid]
Log (water Solubility in mol/L): −3.15 mol/L

OCCc1ccccc1 [phenethyl alcohol]
Log (water Solubility in mol/L): −0.83 mol/L
